Laboratory results: US20100144779A1, “Marine Alkalod Makaluvamines and Derivatives Thereof” (THE UAB RESEARCH FOUNDATION, priority 2007, published 2010)

Test system: female, athymic nude mice
Settings: 8, 20 or 40 mg/kg intra-peritoneally, 1 time per week for 3 weeks
Method: To evaluate the potential toxicity of the makaluvamine compounds disclosed, compound 4c was identified for testing in a mouse model. […] Four groups of 5 female, athymic nude mice (Federick Cancer Research, Rockville, Md.) were injected intra-peritoneally, at doses of 8, 20 or 40 mg/kg of compounds 4c (treatment group) or vehicle only (control group). […] Compound 4c was injected at its respective dose in a 200 μl volume of saline:DMSO (100 μl:100 μl). The vehicle only group was injected with 200 μl saline:DMSO. Injections were given 1 time per week for 3 weeks. […] Mice in each groups were evaluated for survival and weight gain/loss during the treatment period.

In the case of `O=C1C(NCc2ccccc2)=CC2=NCCc3c[nH]c1c32` [Compound 4c], the “weight changes between treatment groups” value is reported as “No significant weight changes”, the “weight gain/loss during the treatment period” value is reported as “all mice gained weight” and the survival (observed 21 days) is reported as 100%.
